From paper PMC9146500, “New Quinoline–Urea–Benzothiazole Hybrids as Promising Antitubercular Agents: Synthesis, In Vitro Antitubercular Activity, Cytotoxicity Studies, and In Silico ADME Profiling” (Pharmaceuticals, 2022)
Converted amounts (≈) assume the structure as drawn. “And” between values parts separate entries of the source, which are not always exact repeats. Equal entries are not always repeated. Where two headings read alike, the source gives them in different places.

Legend:
HepG2 cells = assay: MTT cytotoxicity assay; details: HepG2, 24 h, MTT; for IC20: concentration at which cells retain 80% viability, extrapolated from the dose–response curve
MTT cytotoxicity assay = details: human; for IC20 at 24 h: IC20, HepG2, 24 h, MTT, concentration at which cells retain 80% viability, extrapolated from the dose–response curve
[1] = test system: Mycobacterium tuberculosis H37Rv pMSp12::GFP; assay: microbe, parasite or virus in culture; type: cell-based; details: Mycobacterium tuberculosis, 168 h, Mtb H37Rv, protein-rich media, 7 days, read-out: MIC90 7H9/ADC/GLU/Tw 7 Days; for MIC90: H37RV
[2] = test system: Mycobacterium tuberculosis H37Rv pMSp12::GFP; assay: microbe, parasite or virus in culture; type: cell-based; details: Mtb H37Rv
[3] = cited from earlier work
[4] = Mycobacterium tuberculosis, 168 h, protein-poor media, 7 days, read-out: MIC90 7H9/CAS/GLU/Tx 7 Days
[5] = Mycobacterium tuberculosis, H37RV, both media (CAS and ADC) or medium not given, read-out: MIC90
[6] = Mycobacterium tuberculosis, H37RV, 168 h, protein-poor media, 7 days, read-out: MIC90 7H9/CAS/GLU/Tx 7 Days
[7] = protein-poor media, 7 days, read-out: MIC90 7H9/CAS/GLU/Tx 7 Days

SMILES | IC20 (HepG2 cells) [µM] | viability at 24 h (MTT cytotoxicity assay) [%] | IC20 at 24 h (MTT cytotoxicity assay) [µM] | MIC [1] [µM] | MIC [2, 4] [µM] | MIC90 [2, 5] [µM] | melting point | MIC90 [1] [µM] | MIC90 [2, 6] [µM] | MIC90 [2, 7] [µM] | MIC90 cell viability (HepG2 cells; viability at the compound's MIC90 in the CAS assay, extrapolated from the curve) [%] | MIC90 ([2]; both media (CAS and ADC) or medium not given) | clog P [3]
O=C(NCCNc1ccnc2cc(Cl)ccc12)Nc1nc2ccc(Br)cc2s1 [Compound 6g, 1-(6-Bromobenzo[d]thiazol-2-yl)-3-(2-((7-chloroquinolin-4-yl)amino)ethyl)urea] | 4.26 | 48 | 7.47 | 14.9 (≈ 7.1 µg/mL) | 8.89 (≈ 4.24 µg/mL) | 8.89 to 14.9 (≈ 4.24 to 7.1 µg/mL) | – | – | – | – | – | – | –
O=C(NCCCNc1ccnc2cc(Cl)ccc12)Nc1nc2ccc(C(F)(F)F)cc2s1 [Compound 6i, 1-(3-((7-Chloroquinolin-4-yl)amino)propyl)-3-(6-(trifluoromethyl)benzo[d]thiazol-2-yl)urea] | – | 87 | 11.2 | – | – | – | 198 to 200 °C | 12.8 (≈ 6.16 µg/mL) | 7.81 (≈ 3.75 µg/mL) | – | – | – | –
O=C(NCCCNc1ccnc2cc(Cl)ccc12)Nc1nc2ccc(Cl)cc2s1 [Compound 6j, 1-(6-Chlorobenzo[d]thiazol-2-yl)-3-(3-((7-chloroquinolin-4-yl)amino)propyl)urea] | – | 86 | 26.3 | – | – | – | 286 to 288 °C | 11.7 (≈ 5.24 µg/mL) | 4.39 (≈ 1.96 µg/mL) | 4.389 (≈ 1.96 µg/mL) | – | – | –
Cc1ccc2nc(NC(=O)NCCCNc3ccnc4cc(Cl)ccc34)sc2c1 [Compound 6k, 1-(3-((7-Chloroquinolin-4-yl)amino)propyl)-3-(6-methylbenzo[d]thiazol-2-yl)urea] | – | 93 | 42.7 | – | – | – | 234 to 239 °C | 62.3 (≈ 26.5 µg/mL) | 31.2 (≈ 13.3 µg/mL) | – | – | – | –
O=C(NCCCNc1ccnc2cc(Cl)ccc12)Nc1nc2ccc(Br)cc2s1 [Compound 6m, 1-(6-Bromobenzo[d]thiazol-2-yl)-3-(3-((7-chloroquinolin-4-yl)amino)propyl)urea] | – | 100 | 25.1 | – | – | – | 254 to 257 °C | 16.9 (≈ 8.28 µg/mL) | 15.9 (≈ 7.82 µg/mL) | – | – | – | –
O=C(NCCCCNc1ccnc2cc(Cl)ccc12)Nc1nc2ccc(Cl)cc2s1 [Compound 6o, 1-(6-Chlorobenzo[d]thiazol-2-yl)-3-(4-((7-chloroquinolin-4-yl)amino)butyl)urea] | – | 30 | 2.13 | – | 7.43 (≈ 3.42 µg/mL) | – | 189 to 191 °C and 189.8 to 191.3 °C | 23.5 (≈ 10.8 µg/mL) | 7.46 (≈ 3.43 µg/mL) | – | – | – | –
O=C(NCCCCNc1ccnc2cc(Cl)ccc12)Nc1nc2ccc(Br)cc2s1 [Compound 6p] | 2.13 | – | – | – | – | – | – | – | – | 7.812 (≈ 3.94 µg/mL) | 56 | – | –
O=C(NCCCCNc1ccnc2cc(Cl)ccc12)Nc1nc2ccc(F)cc2s1 [Compound 6q, 1-(6-Fluorobenzo[d]thiazol-2-yl)-3-(4-((7-chloroquinolin-4-yl)amino)butyl)urea] | – | – | – | – | – | – | 256 to 259 °C | > 125 | > 125 | – | – | not active at all | –
O=C(NCCCCCCNc1ccnc2cc(Cl)ccc12)Nc1nc2ccc(Cl)cc2s1 [Compound 6r, 1-(6-Chlorobenzo[d]thiazol-2-yl)-3-(6-((7-chloroquinolin-4-yl)amino)hexyl)urea] | – | 72 | 5.47 | – | – | – | 239 to 241 °C | 14.6 (≈ 7.14 µg/mL) | 7.6 (≈ 3.71 µg/mL) | – | – | – | –
O=C(NCCCCCCNc1ccnc2cc(Cl)ccc12)Nc1nc2ccc(Br)cc2s1 [Compound 6s, 1-(6-Bromobenzo[d]thiazol-2-yl)-3-(6-((7-chloroquinolin-4-yl)amino)hexyl)urea] | – | 76 | 7.02 | – | – | – | 192 to 194 °C | 21 (≈ 11.2 µg/mL) | 8.76 (≈ 4.67 µg/mL) | – | – | – | –
O=C(NCCCCCCNc1ccnc2cc(Cl)ccc12)Nc1nc2ccc(F)cc2s1 [Compound 6t, 1-(6-((7-Chloroquinolin-4-yl)amino)hexyl)-3-(6-fluorobenzo[d]thiazol-2-yl)urea] | – | 92 | 12.9 | – | – | 6.97 to 31.2 (≈ 3.29 to 14.7 µg/mL) | 256 to 259 °C | 31.2 (≈ 14.7 µg/mL) | 6.97 (≈ 3.29 µg/mL) | – | – | – | –
CC(CNc1ccnc2cc(Cl)ccc12)NC(=O)Nc1nc2ccc(F)cc2s1 (stereo not drawn) [Compound 6v, 1-(1-((7-Chloroquinolin-4-yl)amino)propan-2-yl)-3-(6-fluorobenzo[d]thiazol-2-yl)urea] | – | – | – | – | – | – | 228 to 230 °C | > 125 | > 125 | – | – | – | –
CC(CNc1ccnc2cc(Cl)ccc12)NC(=O)Nc1nc2ccc(Br)cc2s1 (stereo not drawn) [Compound 6w, 1-(1-((7-Chloroquinolin-4-yl)amino)propan-2-yl)-3-(6-bromobenzo[d]thiazol-2-yl)urea] | – | 19 | 3.38 | – | – | – | 246 to 248 °C | 14 (≈ 6.87 µg/mL) | 8.19 (≈ 4.02 µg/mL) | – | – | – | –
Cc1ccc2nc(NC(=O)NC(C)CNc3ccnc4cc(Cl)ccc34)sc2c1 (stereo not drawn) [Compound 6x, 1-(1-((7-Chloroquinolin-4-yl)amino)propan-2-yl)-3-(6-methylbenzo[d]thiazol-2-yl)urea] | – | 96 | 16.2 | – | – | – | 229 to 231 °C | 10.3 (≈ 4.41 µg/mL) | 7.22 (≈ 3.07 µg/mL) | – | – | – | –
CC(CNc1ccnc2cc(Cl)ccc12)NC(=O)Nc1nc2ccc(Cl)cc2s1 (stereo not drawn) [Compound 6y, 1-(1-((7-Chloroquinolin-4-yl)amino)propan-2-yl)-3-(6-chlorobenzo[d]thiazol-2-yl)urea] | – | 78 | 2.22 | – | – | – | 301 to 304 °C | 8.46 (≈ 3.77 µg/mL) | 2.33 (≈ 1.04 µg/mL) | – | – | – | –
CC(C)=CCC/C(C)=C/CNCCNC1C2CC3CC(C2)CC1C3 (stereo not drawn) [SQ-109] | – | – | – | – | – | – | – | – | – | – | – | – | 6.82
